According to US20220257595A1, “MACITENTAN FOR USE IN TREATING PORTOPULMONARY HYPERTENSION” (ACTELION PHARMACEUTICALS LTD, priority 2019, published 2022):

Tested on: patients with PoPH
Experiment: PORTICO safety: liver test and hemoglobin laboratory abnormalities
Format: in vivo
From the text: For the evaluation of treatment-emergent safety endpoints in the DB phase, the observation period for each individual subject started at the time of the first administration of macitentan or placebo and ended with the start of OL treatment or 30 days after DB treatment discontinuation (whichever occurred first). The safety variables listed below apply to the DB treatment-emergent period and the macitentan treatment-emergent period. The DB treatment-emergent period was defined as the period from the DB treatment start date up to the EOT-DB+30 days or to the EOT-DB for patients entering OL. The macitentan treatment-emergent period was defined as the period from the first intake of macitentan up to end of macitentan treatment (EOMT)+30 days. EOMT was defined as EOT-DB (for patient who received macitentan only in the DB period) or EOT-OL when applicable. For patients entering OLE, the EOMT is EOT-OL. • Treatment-emergent AEs • Treatment-emergent deaths • Treatment-emergent serious adverse events (SAEs) • AEs leading to premature discontinuation of study treatment • Occurrence of post-baseline LFT (ALT and/or AST) abnormalities, classified as: • ≥3×ULN; • ≥5×ULN; • ≥8×ULN; • ≥3×ULN and <5×ULN; • […] and <8×ULN. • Occurrence of post-baseline ALT and/or AST abnormality 3×ULN and concomitant (i.e., at the same time) total bilirubin ≥2×ULN • Occurrence of post-baseline ALT and/or AST abnormality ≥3×ULN and concomitant (i.e., at the same time) total bilirubin ≥2×ULN and increased as compared to baseline • Occurrence of hemoglobin abnormalities, classified as: • ≤80 g/L, • >80 and ≤100 g/L, • decrease from baseline ≥20 g/L and <50 g/L, • decrease from baseline ≥50 g/L, • <100 g/L and concurrent (i.e., at the same time) decrease from baseline ≥20 g/L. • Other treatment-emergent marked laboratory abnormalities • Change from baseline/macitentan baseline to EOT-DB/EOMT in vital signs • Change from baseline/macitentan baseline to EOT-DB/EOMT in laboratory variables • Change from baseline/macitentan baseline to EOT-DB/EOMT in Child-Pugh classification • Change from baseline/macitentan baseline to EOT-DB/EOMT in MELD score
Treatment-emergent liver test and hemoglobin abnormalities are those that occurred during the DB treatment-emergent (SS) and macitentan treatment-emergent (MTS) periods that were not present at baseline.
For post-baseline liver test abnormalities, the following events are considered: • ALT and/or AST ≥3×ULN, • ALT and/or AST ≥5×ULN, • ALT and/or AST ≥8×ULN, • ALT and/or AST ≥3×ULN and <5×ULN, • ALT and/or AST ≥5×ULN and <8×ULN, • ALT and/or AST ≥3×ULN and concomitant (i.e., at the same time) total bilirubin ≥2×ULN. • ALT and/or AST 3×ULN and concomitant (i.e., at the same time) total bilirubin ≥2×ULN and increased as compared to baseline
The highest ALT or AST value at any post-baseline time point of assessment for DB treatment-emergent (SS) and macitentan treatment-emergent (MTS) periods was considered in the evaluation of incidences.
For the occurrence of post-baseline hemoglobin abnormalities, the following events were considered in the evaluation of incidences: • Hemoglobin ≤80 g/L, • Hemoglobin >80 and […], • Hemoglobin decrease from baseline ≥20 g/L and <50 g/L, • Hemoglobin decrease from baseline ≥50 g/L, • Hemoglobin <100 g/L and concurrent (i.e., at the same time) decrease from baseline ≥20 g/L.
The lowest hemoglobin value at any post-baseline time point of assessment for DB treatment-emergent (SS) and macitentan treatment-emergent (MTS) periods was considered in the evaluation of incidences.

[1] = DB phase, Safety set, 10 mg, N = 43, most extreme post-baseline value
[2] = single macitentan-treated patient, DB phase
[3] = single patient, DB+OL phase, malignant ascites and hepatic encephalopathy

## CCCNS(=O)(=O)Nc1ncnc(OCCOc2ncc(Br)cn2)c1-c1ccc(Br)cc1 [macitentan, N-[5-(4-Bromophenyl)-6-[2-[(5-bromo-2-pyrimidinyl)oxy]ethoxy]-4-pyrimidinyl]-N′-propylsulfamide]
DB phase
  Patients with hemoglobin decreased to ≤80 g/L: none
[1]
  ALT or AST >= 5*ULN: 0/43
  ALT or AST >= 5*ULN and <8*ULN: 0/43
  ALT or AST >= 8*ULN: 0/43
  Hemoglobin <= 80 g/L: 0/43
DB phase, macitentan group
  Patients with hemoglobin decreased to ≤100 g/L: 3 patients
DB phase, macitentan group (12 patients)
  Patients with hemoglobin decreases of ≥20 g/L: 27.9%
DB phase, macitentan-treated
  Patients with aminotransferase increase to >3×ULN: 1 patient
Macitentan DB + OL phase, Macitentan treated set, N = 84
  ALT or AST >= 5*ULN and <8*ULN: 0/84
Macitentan DB+OL phase
  Patients with aminotransferase increase to >3×ULN: 2 patients
  Patients with hemoglobin decrease of ≥50 g/L: 6 patients
  Patients with hemoglobin decreased to ≤80 g/L: 4 patients
  Patients with hemoglobin decreased to ≤100 g/L: 13 patients
Macitentan DB+OL phase (31 patients)
  Patients with hemoglobin decreases of ≥20 g/L: 37.3%
[2]
  ALT in the patient with aminotransferase increase: 3.1 ×ULN
  AST in the patient with aminotransferase increase: 3.2 ×ULN
  Bilirubin in the patient with aminotransferase increase: 2.7 ×ULN
[3]
  ALT in the additional patient with aminotransferase increase: 3.6 ×ULN
  AST in the additional patient with aminotransferase increase: 8.6 ×ULN
  Bilirubin in the additional patient with aminotransferase increase: 11.1 ×ULN
Whole study
  Macitentan-treated patients with Hy's Law range liver test abnormalities: 2 patients
